Test results from US5563151A, “Amino acid derivatives as paf-receptor antagonists” (British Biotech Pharmaceuticals limited, priority 1992, dated 1996).

Key:
[1] = target: T1, PAF receptor (human platelet plasma membrane) (Homo sapiens, UniProt P25105); experiment: Inhibition of [^3 H]-PAF Receptor Binding; conditions: human platelet plasma membranes; [^3 H]-PAF 0.5 nM; 0° C., 1 hour, pH 7.0
T1 construct: Platelet concentrates were obtained from a hospital blood bank; from tissue; host or cells: human platelets (hospital blood bank concentrates), lysed platelet membranes
T1 sequence (P25105 whole entry): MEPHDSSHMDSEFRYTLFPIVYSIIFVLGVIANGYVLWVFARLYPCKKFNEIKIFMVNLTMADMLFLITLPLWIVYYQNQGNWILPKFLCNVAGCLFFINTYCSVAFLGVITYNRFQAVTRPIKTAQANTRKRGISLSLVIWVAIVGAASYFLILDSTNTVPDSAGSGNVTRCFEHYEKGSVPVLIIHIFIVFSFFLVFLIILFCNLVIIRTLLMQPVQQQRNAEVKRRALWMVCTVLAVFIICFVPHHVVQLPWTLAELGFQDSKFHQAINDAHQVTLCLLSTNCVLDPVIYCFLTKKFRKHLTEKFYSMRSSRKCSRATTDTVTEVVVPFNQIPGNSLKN
Description: (§1) Compounds of general formula I inhibit PAF-induced functions in both the cellular and tissue levels by changing the PAF binding to its specific receptor site. The ability of compounds of general formula I to inhibit the binding of PAF to its specific receptor binding site on human platelet plasma membranes was measured according to Example 150. The ability of compounds of general formula I to reverse the hypotension caused by an infusion of PAF in rats was measured according Example 151.
Inhibition of [^3 H]-PAF Receptor Binding
The inhibition of [^3 H]-PAF binding to human platelet plasma membrane by compounds of general formula I was determined by isotopic labelling and filtration techniques. Platelet concentrates were obtained from a hospital blood bank. These platelet concentrates (500-2500 ml.) were centrifuged at 800 rpm for 10 minutes in a SORVALL RC3B centrifuge to remove the red blood cells present. (The word SORVALL is a trade mark.) The supernatant was subsequently centrifuged at 3,000 rpm in a SORVALL RC3B centrifuge to pellet the platelets present. The platelet rich pellets were resuspended in a minimum volume of buffer (150 mM NaCl, 10 mM Tris, 2 mM EDTA, pH 7.5) and layered onto Ficoll-Paque gradients, 9 ml platelet concentrate to 2 ml Ficoll, and centrifuged at 1,900 rpm for 15 minutes in a SORVALL RT6000 centrifuge. This step removes the residual red blood cells and other nonspecific material such as lymphocytes from the preparation. The platelets which form a band between the plasma and the Ficoll were removed, resuspended in the above buffer and centrifuged at 3,000 rpm for 10 minutes in a SORVALL RT6000 centrifuge. […]
The assay was conducted by preparing a series of Tris-buffered solutions of the selected antagonist of predetermined concentrations. […] Each washed residue was dried under vacuum on a sampling manifold and placed into vials containing 20 ml of OPTIPHASE MP scintillation fluid and the radioactivity counted in a liquid scintillation counter. […]

PAF-induced hypotension = experiment: Inhibition of PAF-Induced Hypotension in the Rat; format: in vivo, rat (male Sprague-Dawley); conditions: iv, i.v. bolus, PAF 100 ng/kg/min i.v. infusion, anaesthetised rats, read-out: ED50 (dose to cause a 50% reversal of the hypotensive PAF response)
Description: as §1
Inhibition of PAF-Induced Hypotension in the Rat
Male Sprague-Dawley rats (300-350 g) were anaesthetised with a mixture of sodium pentobarbitone, 22.5 mg/kg and thiopental 62.5 mg/kg. Through a midline incision in the neck, the trachea was cannulated and the animals breathed spontaneously. A carotid artery was cannulated for the measurement of blood pressure and this signal was used to trigger a rate meter to measure heart rate. Both jugular veins were cannulated: one for the infusion of PAF and the other for the bolus administration of test compounds.
PAF, 100 ng/kg/min was infused i.v. until a sustained fall in mean blood pressure of 50 mmHg was achieved. […] The peak of this reversal was measured and the dose to cause a 50% reversal of the hypotensive PAF response (ED50) calculated by straight line interpolation and the results are presented in Table 2.

| SMILES | IC50 [1] [nM] | ED50 (PAF-induced hypotension) [mg/kg] |
| --- | --- | --- |
| CCOC(=O)[C@H](CC(C)C)NC(=O)CCCCCn1c(C)nc2cnccc21 [Example 1B, N-6-(2-methylimidazo[4,5-c]pyridin-1-yl)hexanoyl-L-leucine ethyl ester] | 15 |  |
| CCOC(=O)[C@H](CC(C)C)NC(=O)CCCn1c(C)nc2cnccc21 [Example 11B, N-4-(2-methylimidazo[4,5-c]pyridin-1-yl)butanoyl-L-leucine ethyl ester] | 3 | 0.0305 |
| CCOC[C@H](CC(C)C)NS(=O)(=O)CCCn1c(C)nc2cnccc21 [Example 33B, N-4-(2-methylimidazo[4,5-c]pyridin-1-yl)propylsulphonyl-L-leucinyl ethyl ether] |  | 0.0018 |
| CCOC(=O)[C@H](CC(C)C)NC(=O)CCCCCCCCCCn1c(C)nc2cnccc21 [Example 98B, N-11-(2-methylimidazo[4,5-c]pyridin-1-yl)undecanoyl-L-leucine ethyl ester] | 1 |  |
